From patent publication US6458862B1, “Foaming agents” (priority 1998, dated 2002)

Tests used:
rat [1] = assay: Acute toxicity in the oral rat, LD50; assay type: in vivo
rat [2] = assay: Acute toxicity in the rat by inhalation, LD50; assay type: in vivo; details: 4 hours
Inflammability in air = assay type: physicochemical; details: marked § flammable

| SMILES | Acute toxicity in the oral rat, LD50 (rat [1]) | Acute toxicity in the rat by inhalation, LD50 (rat [2]) | Inflammability in air, % volume (Inflammability in air) |
| --- | --- | --- | --- |
| FC(Cl)(Cl)Cl [CFC 11, trichloro-fluoromethane] | >1000 ppmv/4 hours | 26200 ppmv/4 hours |  |
| FC(F)OC(F)(F)C(F)(F)OC(F)F [HCF2OCF2CF2OCF2H, 1-difluoromethoxy-1,1,2,2-tetrafluoroethyl difluoromethyl ether] | >5000 ppmv/4 hours | >32000 ppmv/4 hours |  |
| FC(F)OC(F)(F)OC(F)F [HCF2OCF2OCF2H, difluoromethoxy-bis(difluoromethyl ether)] | >5000 ppmv/4 hours | >32000 ppmv/4 hours |  |
| CC(F)(Cl)Cl [HCFC 141b, 1,1-dichloro-1-fluoroethane] | >5000 ppmv/4 hours | 62000 ppmv/4 hours | 7.6-17.7§ % volume |
